For orientation: IC50 means the point on the concentration scale where inhibition reaches its midpoint. A low value points to greater potency.

For experiment [1], the target named is BRM (Homo sapiens, UniProt P51531). In words: ATPase catalytic activity of BRM (ADP-Glo in vitro biochemical assay). The settings on record: for BRM Max % Inhibition: Table 6.
Experiment [2] deals with BRG-1 (Homo sapiens, UniProt P51532). In words: ATPase catalytic activity of BRG-1 (ADP-Glo in vitro biochemical assay). The following applies: for BRG1 Max % Inhibition: Table 6. For orientation: In ADP-Glo the light output rises with the ADP produced.
Sequence of BRG-1 (P51532 whole entry): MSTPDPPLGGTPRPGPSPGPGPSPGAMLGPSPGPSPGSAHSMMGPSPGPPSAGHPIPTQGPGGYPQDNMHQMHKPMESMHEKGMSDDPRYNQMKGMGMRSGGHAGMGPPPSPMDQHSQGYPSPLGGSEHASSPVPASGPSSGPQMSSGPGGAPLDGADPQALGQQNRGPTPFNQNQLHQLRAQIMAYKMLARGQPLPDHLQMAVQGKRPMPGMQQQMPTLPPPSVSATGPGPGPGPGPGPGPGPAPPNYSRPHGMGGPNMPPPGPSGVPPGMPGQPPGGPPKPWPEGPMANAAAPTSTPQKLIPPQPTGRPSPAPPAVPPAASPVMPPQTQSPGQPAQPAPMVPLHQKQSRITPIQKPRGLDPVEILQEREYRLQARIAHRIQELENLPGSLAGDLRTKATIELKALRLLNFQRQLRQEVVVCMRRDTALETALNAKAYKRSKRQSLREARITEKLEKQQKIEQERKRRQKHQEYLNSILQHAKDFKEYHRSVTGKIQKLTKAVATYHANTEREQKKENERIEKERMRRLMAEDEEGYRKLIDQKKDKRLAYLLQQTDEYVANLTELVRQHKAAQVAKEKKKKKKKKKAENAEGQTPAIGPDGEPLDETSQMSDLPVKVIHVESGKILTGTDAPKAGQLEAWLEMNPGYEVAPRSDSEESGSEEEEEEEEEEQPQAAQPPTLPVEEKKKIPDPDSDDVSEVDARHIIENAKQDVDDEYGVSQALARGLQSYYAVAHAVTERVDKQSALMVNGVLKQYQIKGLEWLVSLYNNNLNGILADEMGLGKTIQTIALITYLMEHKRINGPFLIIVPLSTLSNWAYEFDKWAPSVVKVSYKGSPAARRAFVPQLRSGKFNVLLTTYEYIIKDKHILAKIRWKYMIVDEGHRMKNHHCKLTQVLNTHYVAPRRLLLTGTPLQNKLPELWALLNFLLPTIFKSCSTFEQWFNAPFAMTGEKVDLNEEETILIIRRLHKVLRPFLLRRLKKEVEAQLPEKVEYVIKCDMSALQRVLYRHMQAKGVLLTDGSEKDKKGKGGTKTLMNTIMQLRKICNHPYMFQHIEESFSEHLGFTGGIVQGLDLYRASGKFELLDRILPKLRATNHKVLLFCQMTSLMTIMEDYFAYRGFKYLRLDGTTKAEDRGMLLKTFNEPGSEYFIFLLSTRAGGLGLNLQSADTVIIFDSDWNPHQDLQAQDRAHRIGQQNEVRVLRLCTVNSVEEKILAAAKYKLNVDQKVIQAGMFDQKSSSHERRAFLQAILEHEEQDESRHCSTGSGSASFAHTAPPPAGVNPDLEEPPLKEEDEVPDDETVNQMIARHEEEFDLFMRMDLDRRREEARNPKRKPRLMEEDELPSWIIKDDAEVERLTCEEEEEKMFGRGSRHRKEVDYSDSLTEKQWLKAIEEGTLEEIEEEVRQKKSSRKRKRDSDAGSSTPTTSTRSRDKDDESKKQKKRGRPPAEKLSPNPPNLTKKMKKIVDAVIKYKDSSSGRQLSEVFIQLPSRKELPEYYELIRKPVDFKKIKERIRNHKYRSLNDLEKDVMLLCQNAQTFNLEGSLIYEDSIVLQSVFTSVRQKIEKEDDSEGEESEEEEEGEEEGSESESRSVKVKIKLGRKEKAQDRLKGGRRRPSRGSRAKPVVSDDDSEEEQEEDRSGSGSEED

Each structure is given as a SMILES string. A value given as a limit tells only on which side of the number the result lay.

Sequence of BRM (P51531 whole entry): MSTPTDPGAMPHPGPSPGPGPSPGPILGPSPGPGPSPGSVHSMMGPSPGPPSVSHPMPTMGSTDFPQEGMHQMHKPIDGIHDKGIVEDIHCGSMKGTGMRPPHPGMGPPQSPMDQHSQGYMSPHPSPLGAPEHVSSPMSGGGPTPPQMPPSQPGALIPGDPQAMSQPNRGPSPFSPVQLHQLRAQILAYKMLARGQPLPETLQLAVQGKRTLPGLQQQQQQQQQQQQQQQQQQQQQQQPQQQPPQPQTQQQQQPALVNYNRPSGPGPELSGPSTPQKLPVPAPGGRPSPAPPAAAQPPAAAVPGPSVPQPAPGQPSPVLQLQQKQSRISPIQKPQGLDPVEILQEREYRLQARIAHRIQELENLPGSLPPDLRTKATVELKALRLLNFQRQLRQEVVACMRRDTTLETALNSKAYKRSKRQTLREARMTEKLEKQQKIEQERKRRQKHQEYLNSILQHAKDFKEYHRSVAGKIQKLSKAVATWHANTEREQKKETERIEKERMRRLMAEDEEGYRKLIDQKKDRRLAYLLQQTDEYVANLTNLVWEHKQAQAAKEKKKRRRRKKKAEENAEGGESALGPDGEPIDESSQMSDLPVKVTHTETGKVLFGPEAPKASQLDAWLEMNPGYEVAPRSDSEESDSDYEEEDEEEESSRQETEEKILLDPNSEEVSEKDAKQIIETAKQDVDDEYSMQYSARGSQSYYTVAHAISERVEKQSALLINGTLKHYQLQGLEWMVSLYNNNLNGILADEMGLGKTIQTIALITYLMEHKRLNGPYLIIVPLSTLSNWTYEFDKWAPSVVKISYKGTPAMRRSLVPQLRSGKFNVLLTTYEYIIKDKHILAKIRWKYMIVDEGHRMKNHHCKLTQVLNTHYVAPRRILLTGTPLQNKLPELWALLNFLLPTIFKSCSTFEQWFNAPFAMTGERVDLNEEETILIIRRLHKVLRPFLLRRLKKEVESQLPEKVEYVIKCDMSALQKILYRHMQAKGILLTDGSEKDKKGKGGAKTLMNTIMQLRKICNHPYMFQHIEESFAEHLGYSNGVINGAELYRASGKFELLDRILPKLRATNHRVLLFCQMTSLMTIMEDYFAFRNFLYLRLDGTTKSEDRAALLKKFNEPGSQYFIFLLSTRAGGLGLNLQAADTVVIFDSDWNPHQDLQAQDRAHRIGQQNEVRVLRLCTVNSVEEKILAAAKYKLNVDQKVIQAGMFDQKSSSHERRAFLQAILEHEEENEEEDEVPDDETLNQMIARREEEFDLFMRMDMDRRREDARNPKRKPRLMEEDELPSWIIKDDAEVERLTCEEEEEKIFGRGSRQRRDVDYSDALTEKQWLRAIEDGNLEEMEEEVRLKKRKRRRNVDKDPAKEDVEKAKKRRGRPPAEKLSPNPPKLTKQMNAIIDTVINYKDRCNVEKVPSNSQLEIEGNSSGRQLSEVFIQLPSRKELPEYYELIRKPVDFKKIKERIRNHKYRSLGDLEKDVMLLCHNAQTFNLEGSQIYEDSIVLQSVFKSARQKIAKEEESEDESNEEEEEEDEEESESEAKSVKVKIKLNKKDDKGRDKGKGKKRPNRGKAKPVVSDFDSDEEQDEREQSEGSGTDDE

For the molecule `CC(C)(C(=O)O)n1ccc(-c2cccc(-c3csc(NC(=O)CNC(=O)c4ccc(N)cc4)n3)c2)n1` [Compound 212, 2-[3-[3-[2-[[2-[(4-aminobenzoyl)amino]acetyl]amino]thiazol-4-yl]phenyl]pyrazol-1-yl]-2-methyl-propanoic acid], in experiment [1], the IC50 was in the range of 100 to 1000 nM and the “BRM Max % Inhibition” value is recorded as above 95%. In experiment [2], the IC50 is 100 to 1000 nM and the “BRG1 Max % Inhibition” value was above 95%.

In the case of `CNC(=O)C(C)(C)n1ccc(-c2cccc(-c3csc(NC(=O)CNC(=O)c4ccc(N)cc4)n3)c2)n1` [Compound 213, 4-amino-N-[2-[[4-[3-[1-[1,1-dimethyl-2-(methylamino)-2-oxo-ethyl]pyrazol-3-yl]phenyl]thiazol-2-yl]amino]-2-oxo-ethyl]benzamide], in experiment [1], the IC50 is below 100 nM and the “BRM Max % Inhibition” value is listed as above 95%. For the same molecule, in experiment [2], the IC50 was below 100 nM and the “BRG1 Max % Inhibition” value is given as above 95%.

`CSCC[C@H](NC(=O)c1ccc(N)cc1)C(=O)Nc1nc(-c2cccc(-c3ccnc(C)c3)c2)cs1` [Compound 214, (S)-4-amino-N-(1-((4-(3-(2-methylpyridin-4-yl)phenyl)thiazol-2-yl)amino)-4-(methylthio)-1-oxobutan-2-yl)benzamide]: in experiment [1], the IC50 is below 100 nM and the “BRM Max % Inhibition” value is listed as above 95%. In addition, in experiment [2], the IC50 is below 100 nM and the “BRG1 Max % Inhibition” value is on record as above 95%.

Take `Cc1nnc(C(=O)NC(C)(C)c2cc(-c3cccc(-c4csc(NC(=O)CNC(=O)c5ccc(N)cc5)n4)c3)ccn2)o1` [Compound 215, N-[1-[4-[3-[2-[[2-[(4-aminobenzoyl)amino]acetyl]amino]thiazol-4-yl]phenyl]-2-pyridyl]-1-methyl-ethyl]-5-methyl-1,3,4-oxadiazole-2-carboxamide]: in experiment [1], the IC50 lay in the range of 100 to 1000 nM and the “BRM Max % Inhibition” value is reported as above 90%. In addition, in experiment [2], the IC50 is 100 to 1000 nM and the “BRG1 Max % Inhibition” value was above 90%.

On to `CNC(=O)Cn1ccc(-c2cccc(-c3csc(NC(=O)CNC(=O)c4ccc(N)cc4)n3)c2)n1` [Compound 216, 4-amino-N-[2-[[4-[3-[1-[2-(methylamino)-2-oxo-ethyl]pyrazol-3-yl]phenyl]thiazol-2-yl]amino]-2-oxo-ethyl]benzamide], for which, in experiment [1], the IC50 is below 100 nM and the “BRM Max % Inhibition” value is reported as above 90%. For the same molecule, in experiment [2], the IC50 lay in the range of 100 to 1000 nM and the “BRG1 Max % Inhibition” value is given as above 95%.

Consider `Nc1ccc(C(=O)NCC(=O)Nc2nc(-c3ccnc(-c4ccncc4)c3)cs2)cc1` [Compound 217, 4-amino-N-[2-oxo-2-[[4-[2-(4-pyridyl)-4-pyridyl]thiazol-2-yl]amino]ethyl]benzamide], for which, in experiment [1], the half-inhibitory concentration (IC50) is below 100 nM and the “BRM Max % Inhibition” value is above 90%. Also, in experiment [2], the IC50 was below 100 nM and the “BRG1 Max % Inhibition” value is above 90%.

Take `Nc1ccc(C(=O)NCC(=O)Nc2nc(-c3cccc(CCc4ccncc4)c3)cs2)cc1` [Compound 218, 4-amino-N-[2-oxo-2-[[4-[3-[2-(4-pyridyl)ethyl]phenyl]thiazol-2-yl]amino]ethyl]benzamide]: in experiment [1], the IC50 was below 100 nM and the “BRM Max % Inhibition” value was above 95%. Besides, in experiment [2], the IC50 is 100 to 1000 nM and the “BRG1 Max % Inhibition” value is recorded as above 90%.

Consider `Nc1ccc(C(=O)NCC(=O)Nc2nc(-c3cccc(-c4ccnc(C5(C(=O)O)CC5)c4)c3)cs2)cc1` [Compound 219, 1-[4-[3-[2-[[2-[(4-aminobenzoyl)amino]acetyl]amino]thiazol-4-yl]phenyl]-2-pyridyl]cyclopropanecarboxylic acid], for which, in experiment [1], the IC50 was below 100 nM and the “BRM Max % Inhibition” value is listed as above 95%. Moreover, in experiment [2], the IC50 is below 100 nM and the “BRG1 Max % Inhibition” value is given as above 95%.

`Cn1cnc(-c2cccc(-c3csc(NC(=O)CNC(=O)c4ccc(N)cc4)n3)c2)c1` [Compound 220, 4-amino-N-[2-[[4-[3-(1-methylimidazol-4-yl)phenyl]thiazol-2-yl]amino]-2-oxo-ethyl]benzamide]: in experiment [1], the IC50 fell in the range of 100 to 1000 nM and the “BRM Max % Inhibition” value is on record as above 95%. Further, in experiment [2], the IC50 was 1000 to 10000 nM and the “BRG1 Max % Inhibition” value is above 80%.

Turning to `Nc1ccc(C(=O)NCC(=O)Nc2nc(-c3cccc(-c4ccnc(N5CCCC(N)C5)c4)c3)cs2)cc1` (stereo not shown) [Compound 221, 4-amino-N-[2-[[4-[3-[2-(3-amino-1-piperidyl)-4-pyridyl]phenyl]thiazol-2-yl]amino]-2-oxo-ethyl]benzamide], in experiment [1], the IC50 was 100 to 1000 nM and the “BRM Max % Inhibition” value is above 95%. Further, in experiment [2], the IC50 was 100 to 1000 nM and the “BRG1 Max % Inhibition” value is recorded as above 80%.

Take `Cc1nc(-c2cccc(-c3csc(NC(=O)CNC(=O)c4ccc(N)cc4)n3)c2)cn1C` [Compound 222, 4-amino-N-[2-[[4-[3-(1,2-dimethylimidazol-4-yl)phenyl]thiazol-2-yl]amino]-2-oxo-ethyl]benzamide]: in experiment [1], the IC50 was in the range of 100 to 1000 nM and the “BRM Max % Inhibition” value was above 95%. Besides, in experiment [2], the IC50 is 100 to 1000 nM and the “BRG1 Max % Inhibition” value is above 80%.

In the case of `CNC(=O)C1(c2cc(-c3cccc(-c4csc(NC(=O)CNC(=O)c5ccc(N)cc5)n4)c3)ccn2)CC1` [Compound 223, 4-amino-N-[2-[[4-[3-[2-[1-(methylcarbamoyl)cyclopropyl]-4-pyridyl]phenyl]thiazol-2-yl]amino]-2-oxo-ethyl]benzamide], in experiment [1], the IC50 was below 100 nM and the “BRM Max % Inhibition” value was above 95%. In addition, in experiment [2], the IC50 was below 100 nM and the “BRG1 Max % Inhibition” value is above 90%.

Turning to `Nc1ccc(C(=O)NCC(=O)Nc2nc(-c3cccc(-c4ccnc(CC(=O)O)c4)c3)cs2)cc1` [Compound 224, [2-[4-[3-[2-[[2-[(4-aminobenzoyl)amino]acetyl]amino]thiazol-4-yl]phenyl]-2-pyridyl]acetyl]oxysodium], in experiment [1], the IC50 is below 100 nM and the “BRM Max % Inhibition” value was above 95%. In experiment [2], the IC50 was below 100 nM and the “BRG1 Max % Inhibition” value was above 90%.

Regarding `CN(C)C1CCCN(c2cc(-c3cccc(-c4csc(NC(=O)CNC(=O)c5ccc(N)cc5)n4)c3)ccn2)C1` (stereo not shown) [Compound 225, 4-amino-N-[2-[[4-[3-[2-[3-(dimethylamino)-1-piperidyl]-4-pyridyl]phenyl]thiazol-2-yl]amino]-2-oxo-ethyl]benzamide], in experiment [1], the IC50 is 100 to 1000 nM and the “BRM Max % Inhibition” value was above 80%. Further, in experiment [2], the IC50 was in the range of 100 to 1000 nM and the “BRG1 Max % Inhibition” value is listed as above 90%.

`CNC(=O)C(C)(C)c1cc(-c2cccc(-c3csc(NC(=O)CNC(=O)c4ccc(N)cc4)n3)c2)ccn1` [Compound 226, 4-amino-N-[2-[[4-[3-[2-[1,1-dimethyl-2-(methylamino)-2-oxo-ethyl]-4-pyridyl]phenyl]thiazol-2-yl]amino]-2-oxo-ethyl]benzamide]: in experiment [1], the IC50 is below 100 nM and the “BRM Max % Inhibition” value was above 95%. Further, in experiment [2], the IC50 was below 100 nM and the “BRG1 Max % Inhibition” value is listed as above 95%.

Take `Nc1ccc(C(=O)NCC(=O)Nc2nc(-c3cccc(-c4ccncn4)c3)cs2)cc1` [Compound 227, 4-amino-N-[2-oxo-2-[[4-(3-pyrimidin-4-ylphenyl)thiazol-2-yl]amino]ethyl]benzamide]: in experiment [1], the IC50 is below 100 nM and the “BRM Max % Inhibition” value is above 95%. Besides, in experiment [2], the IC50 was below 100 nM and the “BRG1 Max % Inhibition” value is above 95%.

The values above are taken from patent US11497752B2, “Compounds and uses thereof” (Foghorn Therapeutics Inc., priority 2018, dated 2022).
